These results are taken from patent US5508299A, “Imidazolyl-substituted cyclohexane derivatives” (Bayer Aktiengesellschaft, priority 1992, dated 1996).

Each structure is given as a SMILES string. pIC50, pKi: −log10 of the molar value.

Assay [1] has as its system contractions of isolated rabbit aorta rings induced by angiotensin II (AII). The experiment in a line: Inhibition of the vascular contraction induced by angiotensin II in isolated rabbit aorta rings in vitro. The assay is classed as cell-based. Particulars: Oryctolagus cuniculus, based on the 3rd = submaximal agonist concentration, read-out: IC50 against contractions induced by AII. The procedure:
Investigation of the inhibition of the contraction induced by agonists
Rabbits of either sex are stunned by a blow to the back of the head and bled out, or in some cases anaesthetised with Nembutal (about 60-80 mg/kg i.v.) and sacrificed by opening the thorax. The thorax aorta is removed, freed from adhering connective tissue, divided into ring segments 1.5 mm wide and individually transferred under an initial loading of about 3.5 g to 10 ml organ baths containing Krebs-Henseleit nutrient solution, aerated with 95% O2 /5% CO2 and temperature-controlled at 37° C., of the following composition: 119 mmol/l of NaCl; 2.5 mmol/l of CaCl2 ×2H2 O; 1.2 mmol/l of KH2 PO4; 10 mmol/l of glucose; 4.8 mmol/l of KCl; 1.4 mmol/l of MgSO4 ×7 H2 O and 25 mmol/l of NaHCO3.
The contractions are determined isometrically by means of Statham UC2 cells via bridge amplifiers (ifd Mulheim or DSM Aalen) and digitalised by means of A/D converters (System 570, Keithley Munich) and assessed. The agonist dose response curves (DRCs) are plotted hourly. With each DRC, 3 or 4 individual concentrations are applied to the baths at a 4 min interval. After the end of the DRC and subsequent washing-out cycles (16 times in each case about 5 sec/min with the abovementioned nutrient solution), a 28-minute resting or incubation phase follows, within which the contractions as a rule reach the starting value again.
The height of the 3rd DRC, in a normal case, is used as a reference quantity for the assessment of the test substance to be investigated in further runs, which substance is applied to the baths in the following DRCs in increasing dose in each case at the start of the incubation period. Each aorta ring is in this case stimulated for the whole day, always with the same agonist.
Agonists and their standard concentrations (administration volume per individual dose=100 μl):
To calculate the IC50 (concentration at which the substance to be investigated causes a 50% inhibition), the effect is in each case based on the 3rd=submaximal agonist concentration.

Another assay has as its target T1, angiotensin II receptor (Bos taurus, UniProt P25104).
T1 construct: partially purified membrane fractions of bovine AGC using radioactive angiotensin II; from tissue; host or cells: bovine adrenal gland cortex, partially purified membrane fractions
T1 sequence (P25104 1-359): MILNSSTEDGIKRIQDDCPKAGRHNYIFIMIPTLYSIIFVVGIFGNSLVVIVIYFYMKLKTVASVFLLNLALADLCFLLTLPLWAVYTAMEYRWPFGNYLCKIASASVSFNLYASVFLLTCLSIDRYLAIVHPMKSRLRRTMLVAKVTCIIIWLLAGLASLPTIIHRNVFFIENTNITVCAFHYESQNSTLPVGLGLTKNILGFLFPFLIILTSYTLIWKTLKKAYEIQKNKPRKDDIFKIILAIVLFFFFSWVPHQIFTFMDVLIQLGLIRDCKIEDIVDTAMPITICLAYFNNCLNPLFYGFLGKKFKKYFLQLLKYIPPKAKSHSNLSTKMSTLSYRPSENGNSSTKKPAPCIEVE
Kind of assay: Angiotensin II receptor binding in membrane fractions of the adrenal cortex (bovine). Particulars: bovine adrenal cortex membranes; 3H-angiotensin II (3-5 nM); 60 min, room temperature, pH 7.2. From the text: Interaction of the compounds according to the invention with the angiotensin II receptor in membrane fractions of the adrenal cortex (bovine)
Adrenal gland cortices from cattle (AGCs), which have been freshly removed and carefully freed from gland medulla, are comminuted in sucrose solution (0.32M) with the aid of an Ultra-Turrax (Janke & Kunkel, Staufen i.B.) to give a coarse membrane homogenate and partially purified to give membrane fractions in two centrifugation steps.
The receptor binding investigations are carried out on partially purified membrane fractions of bovine AGC using radioactive angiotensin II in an assay volume of 0.25 ml, which specifically contains the partially purified membranes (50-80 μg), ^3 H-angiotensin II (3-5 nM), test buffer solution (50 mM Tris, pH 7.2, 5 mM MgCl2) and the substances to be investigated. After an incubation period of 60 min at room temperature, the unbound radioactivity of the samples is separated by means of moistened glass fibre filters (Whatman GF/C) and the bound radioactivity is measured […] in a scintillation cocktail after washing the protein with ice-cold buffer solution (50 mM Tris/HCl, pH 7.4, 5% PEG 6000). The raw data were analysed using computer programs to give Ki or IC50 values (K1 : IC50 values corrected for the radioactivity used; IC50 values: concentration at which the substance to be investigated causes a 50% inhibition of the specific binding of the radioligand).

Assay [2] deals with smooth muscle cells from aortas of pigs. Kind of assay: Inhibition of the proliferation of smooth muscle cells (3H-thymidine incorporation). The assay is classed as cell-based, pig. Particulars: porcine aortic smooth muscle cells. The procedure:
Investigation of the inhibition of the proliferation of smooth muscle cells by the compounds according to the invention
To determine the antiproliferative action of the compounds, smooth muscle cells are used which are obtained from aortas of pigs by the media explant technique [R. Ross, J. Cell. Biol. 50, 172, 1971]. The cells are inoculated into suitable culture dishes, as a rule 96-hole plates, and cultured at 37° C. in 5% CO2 for 2-3 days in medium 199 containing 7.5% FCS and 7.5% NCS, 2 mmol L-glutamine and 15 mmol HEPES, pH 7.4. The cells are then synchronised for 2-3 days by withdrawal of serum and then stimulated into growth using serum or other factors. Test compounds are simultaneously added. After 16-20 hours, 1 μCi ^3 H-thymidine is added and after a further 4 hours the incorporation of this substance into the TCA-precipitatable DNA of the cells is determined.
To determine the IC50 values, the active compound concentration is calculated which, on sequential dilution of the active compound, causes half-maximal inhibition of the thymidine incorporation produced by 1% FCS.
A general note: Dividing cells build labelled thymidine or BrdU into new DNA.

A word on the pIC50: it is the IC50 on a negative log10 scale, so that one unit is a factor of ten. Turning to `CCCCc1nc(Cl)c(C(=O)O)n1Cc1ccc([C@@H]2CCCC[C@H]2C(=O)O)cc1` (relative stereo) [Example 4], in assay [1], the pIC50 was 5.85. Usually pKi stands for the negative decadic logarithm of the Ki, by convention in mol/L. Lower therefore signals a large Ki. As to `CCCCc1nc(Cl)c(CO)n1Cc1ccc([C@@H]2CCCC[C@H]2C(=O)NS(=O)(=O)c2ccc(C)cc2)cc1` (relative stereo) [Example 9], the pIC50 in assay [1] is 6.04. For the same molecule, the pKi at angiotensin II receptor is 6.92. `CCCCc1nc(Cl)c(C(=O)O)n1Cc1ccc([C@@H]2CCCC[C@H]2C(=O)NS(=O)(=O)c2ccc(C)cc2)cc1` (relative stereo) [Example 13, N-(4-Tolylsulphonyl)-trans-2-[4-(2-butyl-4-chloro-5-carboxy-imidazol-1-yl-methyl)phenyl]-cyclohexane-1-carboxamide]: the pIC50 in assay [1] was 6.62. At angiotensin II receptor, the pKi was 7.14. In the case of `CCCCc1nc(Cl)c(C=O)n1Cc1ccc([C@@H]2CCCC[C@H]2c2nnn[nH]2)cc1` (relative stereo) [Example 16, 5-{trans-2-[4-(2-Butyl-4-chloro-5-formyl-imidazol-1-yl-methyl)-phenyl]-cyclohex-1-yl}-tetrazole], the pKi on angiotensin II receptor is 6.36. Consider `CCCCc1nc(Cl)c(C=O)n1Cc1ccc(C2CCCCC2C(=O)N[C@H](CO)c2ccccc2)cc1` (single isomer, unassigned) [Example 6], for which the “Inhibition [%] at 10^-6 M” value in assay [2] stood at 41%. Still for that read-out and setting: the value for `CCCCc1nc(Cl)c(C=O)n1Cc1ccc(C2CCCCC2C(=O)N[C@H](CO)c2ccccc2)cc1` (single isomer, unassigned) [Example 7] was 100%; that for `CCCCc1nc(Cl)c(CO)n1Cc1ccc(C2CCCCC2C(=O)N[C@H](CO)c2ccccc2)cc1` (single isomer, unassigned) [Example 10] was 12%. On the same count and under the same terms, in the case of `CCCCc1nc(Cl)c(CO)n1Cc1ccc(C2CCCCC2C(=O)N[C@H](CO)c2ccccc2)cc1` (single isomer, unassigned) [Example 11] it was 100%.
